Data published in patent US20150322001A1, “OMEGA-3 ANALOGUES” (The University of Sydney, priority 2012, published 2015).

How the values were obtained:
MDA-MB-231 cells [1] = assay: MTT assay, inhibition of proliferation of MDA-MB-231 cells; assay type: cell-based, human; details: MTT reduction, 24 h
Protocol: The synthesized compounds given in Table 1 were tested for their activity in inhibiting the proliferation of MDA-MB-231 cells.
• 1. Cell culture and cell treatment: Breast cancer MDA-MB-231 cells were maintained in monolayers at 37° C. in DMEM containing penicillin and streptomycin, L-glutamine and 10% fetal bovine serum in an atmosphere of 95% air and 5% CO2. Cells were seeded into multi-well plates at 5×10^4 cells/mL; media was replaced 24 h later with fresh serum-free DMEM containing one of the test compounds in DMSO. DMSO was added to control cells at a final concentration of 0.1%. • 2. MTT assay: MDA-MB-231 cells were seeded in 96 well plates (0.2 mL/well), treated with compounds at 0.01, 0.1, 0.5, 1, 5 and 10 μM for 24 h. MTT (25 μL of 2.5 mg/mL solution) was added to each well for 2 h, after which MTT and media were removed. The blue formazan product formed from MTT by live cells was dissolved in DMSO (100 μL/well) and quantified spectrophotometrically at 540 nm in a multilabel counter. IC50s were calculated using GraphPad Prism (Prism 5.01). • 3. Caspase 3 activity: MDA-MB-231 cells were seeded in 96 well plates (0.2 mL/well), and were treated with compounds at 0.1, 0.5 and 1 μM for 24 h. Caspase 3 activity was quantified using the Caspase-Glo 3/7 assay kit according to manufacturer's protocol (Promega). Briefly, after 24 h treatment, fresh serum-free media was added to wells. Cells were equilibrated at room temperature for 30 min, caspase 3/7 substrate in lysis buffer was added and the luminescence was measured. Relative caspase 3/7 activity was calculated as [(luminescence in treatment−luminescence in control)/luminescence in control×100%]. • 4. Annexin V assay: MDA-MB-231 cells were seeded in 6 well plates (3 mL/well), and were treated with compounds at 0.1, 0.5 and 1 μM for 24 h. The apoptotic cells were quantified by Annexin V staining according to the manufacture's protocol (BD Biosciences). Briefly, after 24 h treatment, the media and harvested cells were collected, followed by PBS washes. Cells were stained with Annexin V and PI in binding buffer for 15 min at room temperature and quantified by flow cytometry (BD Biosciences). The apoptotic cells (%) were calculated as [(Annexin V positive cells in treatment−Annexin V positive cells in control)/Annexin V positive cells in control×100%]. • 5. Matrigel assay: MDA-MB-231 cells were trypsinized and resuspended in serum-free DMEM media (3.5×10^6 cells/mL). The cell suspension was mixed 1:1 with Matrigel solution (Bio Scientific). Aliquots (20 μL containing 3.5×10^4 cells) were placed into 6-well tissue-culture dishes to form well-defined droplets and incubated at 37° C. for 5 min to enable semi-solidification. Migration media was freshly made as DMEM containing 20% fetal bovine serum, epidermal growth factor 10 pg/mL, hydrocortisone 0.4 ng/mL, vascular endothelial growth factor (VEGF, 1 pg/mL), basic fibroblast growth factor (bFGF, 20 pg/mL), insulin-like growth factor-1 (40 pg/mL), ascorbic acid (2 ng/mL) and heparin (45 ng/mL). Compounds were added in migration media (3 mL/well) and plates were then incubated for 24 h. Cells that migrated out of droplets were scored using phase-contrast microscopy and digital image analysis (Olympus). • 6. Real-time RT PCR: Cell droplets from migration assays were collected, and total RNA was extracted using Tri Reagent (Astral Scientific) according to the manufacturer's protocol. RNA samples were treated with DNase (Promega) and gene expression was quantified using an Express Onestep Superscript qRT-PCT kit (Invitrogen) and gene-specific primers: heparanase (forward) […] and (reverse) GCAGCAACTTTGGCATTTC, integrin-α3 (forward) […] and (reverse) […], actin (forward) […] and (reverse) […]. The cycling conditions (Roto-Gene™ 6000; Corbett Research) were as follows: 95° C. (15 min); 40 cycles of denaturation (95° C., 30 s); annealing (60° C., 1 min); elongation (72° C., 1 min). […]

[2] = test system: human MDA-MB-231 breast cancer cell xenografts; assay: In vivo dose-response study of compound 29, MDA-MB-231 xenografts in nude mice; details: for toxicity of the treatment (growth rates): all dose groups
Protocol: One of the synthesised compounds given in Table 1 (compound 29, reproduced below) was the subject of an in vivo dose-response study in nude mice with human MDA-MB-231 breast cancer cell xenografts. One group received compound 15 in parallel.
nu/nu Balb/c; Age: 6 weeks at commencement of study; Gender: female
control, compound 29 (2.5 mg/kg), compound 29 (10 mg/kg), compound 29 (40 mg/kg) and compound 15 (10 mg/kg); 5 mice/group
human MDA-MB-231 cells, 4×10^5 cells/100 μl (Matrigel:PBS 1:1)/mouse, subcutaneous injection into the 4th mammary fat pad.
after 4 days animals received compound 29 at 40, 10 and 2.5 mg/kg doses (in corn oil, Sigma, and 8% DMSO), or compound 15 at 10 mg/kg in corn oil at 4% DMSO, 6 days each week, for 38 days. Control: 8% DMSO in corn oil.
weighed six days a week; tumour sizes measured with calipers every 3 to 4 days.

MDA-MB-231 cells [3] = assay: Proapoptotic activity in MDA-MB-231 cells (JC-1 staining, confluence); assay type: cell-based, human
Protocol: Several of the compounds were tested for the capacity to induce apoptosis in MDA-MB-231 cells (10 μM, 24 hr treatments). […] In view of the finding with compound 29 a concentration-relationship was developed with caspase-3/7 activity (an established marker of apoptosis) as the endpoint (FIG. 11).

[4] = test system: MDA-MB-231 breast cancer cell xenografts; assay: In vivo evaluation of compound 15, MDA-MB-231 xenografts in nude mice; details: 10 mg/kg intraperitoneally, 39 days
Protocol: One of the synthesised compounds given in Table 1 (compound 15, reproduced below) was tested for its activity in inhibiting the proliferation of MDA-MB-231 breast cancer cell xenografts in nude mice.
female nu/nu Balb/c mice of 5-6 weeks age at the commencement of the experiment (one week acclimatization after arrival in the animal facility).
two groups of 8 mice each.
MDA-MB-231 cells, 4×10^5 cells/100 μL (Matrigel:phosphate-buffered saline, 1:1) per mouse; subcutaneous injection into the mammary pad.
4 days after cancer cell xenografting compound 15 was administered intraperitoneally at a dose of 10 mg/kg in corn oil (Sigma, containing 2% dimethylsulfoxide). Dosing continued for 6 days per week, for a total of 39 days. Control animals received 2% dimethylsulfoxide in corn oil, 100 μL per 20 g mouse for the same duration.
Body weights were measured daily and tumour sizes every three days (with calipers).

Compound | IC50 (MDA-MB-231 cells [1]; Homo sapiens) [µM] | also measured
CCOC(=O)CCCCCCCCCCCCCCCNC(=O)NC1CCCCC1 [Compound 1] | 0.85 ± 0.02 | –
CCOC(=O)CCCCCCCCCCCCCCCNC(=O)Nc1ccc(F)cc1 [Compound 11, Ethyl 16-{[(4-fluorophenyl)carbamoyl]amino}hexadecanoate] | 0.76 ± 0.07 | –
O=C(O)CCCCCCCCCCCCCCCNC(=O)Nc1ccc(Cl)c(C(F)(F)F)c1 [Compound 29, 16-({[4-chloro-3-(trifluoromethyl)phenyl]carbamoyl)amino}hexadecanoic acid] | 1.1 | tumour growth rate and volume at later time points (after day 25) ([2]; 2.5 mg/kg, FIG. 9): larger than the compound 29 (40 mg/kg) group; tumour growth ([2]; 10 mg/kg, FIG. 9): decreased from day 32; tumour weights versus control and 2.5 mg/kg groups ([2]; 40 mg/kg, day 38): significantly smaller; tumour volumes versus control and 2.5 mg/kg groups ([2]; 40 mg/kg, day 38, FIG. 9): significantly smaller; toxicity of the treatment (growth rates) ([2]; 38 days): non-toxic; mouse body weight gain or loss ([2]; compound 29 2.5 mg/kg, 38 days, FIG. 7): gained weight at a steady and similar rate; mouse body weight gain or loss ([2]; compound 29 10 mg/kg, 38 days, FIG. 7): gained weight at a steady and similar rate; mouse body weight gain or loss ([2]; compound 29 40 mg/kg, 38 days, FIG. 7): gained weight at a steady and similar rate; tumour foci in the peritoneal cavity ([2]; compound 29-treated mice (2.5, 10, 40 mg/kg), 38 days): No tumour foci were seen; JC-1 staining (mitochondrial damage) (MDA-MB-231 cells [3]; 10 μM, 24 hr, FIG. 10): Increased JC-1 staining; confluence of treated cells (MDA-MB-231 cells [3]; FIG. 12): decreased confluence
O=C(O)CCCCCCCCCCCCCCCNC(=O)Nc1ccccc1 [Compound 6, 16-[(phenylcarbamoyl)amino]hexadecanoic acid] | 1.2 | –
CCOC(=O)CCCCCCCCCCCCCCCNC(=O)Nc1ccc(C)cc1 [Compound 15, Ethyl 16-{[(4-methylphenyl)carbamoyl]amino}hexadecanoate] | 0.02 | dose limiting toxicity ([4]; 6 days per week): no dose limiting toxicity; mouse body weight loss ([4]; 6 days per week, FIG. 4): greater with compound 15 than control; tumour metastasis [4]: appears to suppress tumour metastasis; primary tumour growth (growth rate and volume) ([4]; FIG. 5): did not prevent primary tumour growth; mice with white small foci in the abdominal cavity ([4]; controls 7/8): 1/8; toxicity of the treatment (growth rates) ([2]; 38 days): non-toxic; mouse body weight gain or loss ([2]; compound 15 10 mg/kg IP, 38 days, FIG. 8): lost weight at the early stage of IP injections
CCOC(=O)CCCCCCCCCCCCCCCNC(=O)NCCc1ccccc1 [Compound 2, Ethyl 16-{[(2-phenylethyl)carbamoyl]amino}hexadecanoate] | 1.11 ± 0.26 | –
CCOC(=O)CCCCCCCCCCCCCCCNC(=O)NCc1ccccc1 [Compound 10, Ethyl 16[(benzylcarbamoyl)amino]hexadecanoate] | 0.87 ± 0.08 | –
O=C(O)CCCCCCCCCCCCCCCNC(=O)NC1CCCCC1 [Compound 5, 16-[(cyclohexylcarbamoyl)amino]hexadecanoic acid] | 2.78 ± 0.19 | –
16-{[(4-methoxyphenyl)carbamoyl]amino}hexadecanoic acid [Compound 24] | – | IC50 (MDA-MB-231 cells [1]): 1.3 µM
CCOC(=O)CCCCCCCCCCCCCCCNC(=O)NC(C)(C)C [Compound 4, Ethyl 16-[(tert-butylcarbamoyl)amino]hexadecanoate] | 6.92 ± 0.31 | –
CCOC(=O)CCCCCCCCCCCCCCCNC(=O)Nc1ccccc1 [Compound 9, Ethyl 16-[(phenylcarbamoyl)amino]hexadecanoate] | 1.59 ± 0.28 | –
O=C(O)CCCCCCCCCCCCCCCNC(=O)NCCc1ccccc1 [Compound 3, 16-{[(2-phenylethyl)carbamoyl]amino}hexadecanoic acid] | 1.5 ± 0.08 | –
CC(C)(C)NC(=O)NCCCCCCCCCCCCCCCC(=O)O [Compound 7, 16-[(tert-butylcarbamoyl)amino]hexadecanoic acid] | 1.22 ± 0.08 | –
O=C(O)CCCCCCCCCCCCCCCNC(=O)NCc1ccccc1 [Compound 8, 16-[(benzylcarbamoyl)amino]hexadecanoic acid] | 0.72 ± 0.01 | –

Continued, in another order:

IC50 (MDA-MB-231 cells [1]; Homo sapiens) [µM] | Compound | also measured
1 | O=C(O)CCCCCCCCCCCCCCCNC(=O)Nc1ccc(I)cc1 [Compound 26, 16-{[(4-iodophenyl)carbamoyl]amino}hexadecanoic acid] | –
1.2 | O=C(O)CCCCCCCCCCCCCCCNC(=O)Nc1ccc(Cl)c(Cl)c1 [Compound 28, 16-{[(3,4-dichlorophenyl)carbamoyl]amino}hexadecanoic acid] | –
0.81 | O=C(O)CCCCCCCCCCCCCCCNC(=O)Nc1ccc(Cl)cc1 [Compound 14, 16-{[(4-chlorophenyl)carbamoyl]amino}hexadecanoic acid] | –
0.66 ± 0.03 | CCNC(=O)NCCCCCCCCCCCCCCCC(=O)OCC [Compound 20, Ethyl 16-[(ethylcarbamoyl)amino]hexadecanoate] | –
2.75 ± 0.27 | CCOC(=O)CCCCCCCCCCCCCCCNC(=O)NC12CC3CC(CC(C3)C1)C2 [Compound 17, Ethyl 16-[(tricyclo[3.3.1.1^3,7]dec-1-ylcarbamoyl)amino]hexadecanoate] | –
1 | O=C(O)CCCCCCCCCCCCCCCNC(=O)Nc1ccc(F)cc1 [Compound 12, 16-{[(4-fluorophenyl)carbamoyl]amino}hexadecanoic acid] | –
0.08 ± 0.01 | CCOC(=O)CCCCCCCCCCCCCCCNC(=O)Nc1ccc(Cl)cc1 [Compound 13, Ethyl 16-{[(4-chlorophenyl)carbamoyl]amino}hexadecanoate] | –
